We go through 2 compounds from BindingDB's records for patent US12168664 (Columbia University, 2024).

The target of the test is Retinol-binding protein 4 (Homo sapiens, UniProt P02753). Nature of the test: Scintillation Proximity RBP4 Binding Assay. Here is the method:
Untagged human RBP4 purified from the urine of tubular proteinuria patients was purchased from Fitzgerald Industries International. It was biotinylated using the EZ-Link Sulfo-NHS-LC-Biotinylation kit from Pierce following the manufacturer's recommendations. […] Nonspecific binding was determined in the presence of 20 μM of unlabeled retinol. The reaction mix was assembled in the dark under dim red light. The plates were sealed with clear tape (TopSeal-A: 96-well microplate, PerkinElmer), wrapped in the aluminum foil, and allowed to equilibrate 6 hours at room temperature followed by overnight incubation at +4° C. Radiocounts were measured using a TopCount NXT counter (Packard Instrument Company).
In general terms: SPA uses beads or plates that emit light when radiolabelled molecules are held near them.

In general, IC50 refers to the concentration that gives 50% inhibition. The low end stands for higher potency, the high end for lower potency. As to `O=C(c1c[nH]c2cnccc12)N1C[C@H]2C[C@@H](c3ccccc3C(F)(F)F)C[C@H]2C1` [US12168664, Compound 8a], the IC50 is > 3 µM. For `O=C(c1c[nH]c2ccncc12)N1C[C@H]2C[C@@H](c3ccccc3C(F)(F)F)C[C@H]2C1` [US12168664, Compound 8b] the value was > 3 µM.
